# Where two headings read alike, the source gives them in different places.
# Tested on: HCV replicon (1b) cells
# Test: Cell-based HCV replicon assay (replicon RNA level by real time PCR, Taqman)
# Procedure: To measure cell-based anti-HCV activity of selected compounds of the present invention, replicon cells were seeded at 5000 cells/well in 96-well collagen I-coated Nunc plates in the presence of the test compound. Various concentrations of test compound, typically in 10 serial 2-fold dilutions, were added to the assay mixture, with the starting concentration ranging from 250 μM to 1 μM. The final concentration of dimethylsulfoxide was 0.5% fetal bovine serum was 5%, in the assay media. Cells were harvested on day 3 by the addition of 1× cell lysis buffer (Ambion cat #8721).
# The replicon RNA level was measured using real time PCR (Taqman assay). The amplicon was located in 5B. The PCR primers were: 5B.2F, […] (SEQ ID. NO. 1); 5B.2R, […] (SEQ ID. NO. 2); the probe sequence was FAM-labeled […] (SEQ ID. NO. 3). GAPDH RNA was used as endogenous control and was amplified in the same reaction as NS5B (multiplex PCR) using primers and VIC-labeled probe recommended by the manufacturer (PE Applied Biosystem). The real-time RT-PCR reactions were run on ABI PRISM 7900HT Sequence Detection System using the following program: 48° C. for 30 minutes, 95° C. for 10 minutes, 40 cycles of 95° C. for 15 sec, 60° C. for 1 minute. The ΔCT values (CT5B-CTGAPDH) were plotted against the concentration of test compound and fitted to the sigmoid dose-response model using XLfit4 (MDL). […] Alternatively, to quantitate the absolute amount of replicon RNA, a standard curve was established by including serially diluted T7 transcripts of replicon RNA in the Taqman assay. All Taqman reagents were from […] Applied Biosystems. Such an assay procedure was described in detail in e.g. Malcolm et al., Antimicrobial Agents and Chemotherapy 50: 1013-1020 (2006).
# [1] = Hepatitis C virus, 72 h; read-out: 1b EC50
# [2] = read-out: 1b EC50; HCV replicon cells, harvested on day 3; EC50 = concentration giving ΔCT=1 over baseline
# [3] = HCV replicon cells, harvested on day 3; EC50 = concentration giving ΔCT=1 over baseline; read-out: 1b EC50
compound,measurement,setting,value
C[C@@]1(N)[C@H](O)[C@@H](CO)O[C@H]1c1cnc2c(N)ncnn12 [Compound 6],EC50,[1],> 100 µM
C[C@@]1(N=[N+]=[N-])[C@H](O)[C@@H](CO)O[C@H]1c1cnc2c(N)ncnn12 [Compound 3],EC50,[1],> 100 µM
CC(C)OC(=O)[C@H](C)NP(=O)(OC[C@H]1O[C@@H](c2cnn3c(N)ncnc23)[C@](C)(N)[C@@H]1O)Oc1ccccc1 (stereo partly shown) [Compound 14],EC50,[2],> 100 µM
C[C@@]1(N=[N+]=[N-])[C@H](O)[C@@H](CO)O[C@H]1c1cnn2c(N)ncnc12 [Compound 4],EC50,[1],> 100 µM
CC(C)OC(=O)[C@H](C)NP(=O)(OC[C@H]1O[C@@H](c2cnn3c(N)ncnc23)[C@](C)(N)[C@@H]1O)Oc1ccccc1 (stereo partly shown) [Compound 15],EC50,[2],28 µM
C[C@@]1(N)[C@H](O)[C@@H](CO)O[C@H]1c1cnn2c(N)ncnc12 [Compound 7],EC50,[1],> 100 µM
CC(C)OP1(=O)OC[C@H]2O[C@@H](c3cnn4c(N)ncnc34)[C@](C)(N)[C@@H]2O1 (stereo partly shown) [Compound 20],EC50,[1],> 100 µM
CC(C)OP1(=O)OC[C@H]2O[C@@H](c3cnn4c(N)ncnc34)[C@](C)(N)[C@@H]2O1 (stereo partly shown) [Compound 21],EC50,[3],> 100 µM
CC(C)OP1(=O)OC[C@H]2O[C@@H](c3cnc4c(N)ncnn34)[C@](C)(N)[C@@H]2O1 (stereo partly shown) [Compound 19],EC50,[3],> 100 µM
CC(C)OP1(=O)OC[C@H]2O[C@@H](c3cnc4c(N)ncnn34)[C@](C)(N)[C@@H]2O1 (stereo partly shown) [Compound 18],EC50,[1],> 100 µM
